Test results published in patent US20210145842A1, “NEW THERAPEUTIC USES” (NOVARTIS AG, priority 2018, published 2021).
Several values for one entry are separate records, joined by “and”; a condition that tells them apart may be missing. Equal entries are not always repeated. Where two headings read alike, the source gives them in different places.

Columns and labels:
[1] = system: patients with metastatic NSCLC containing EGFR ex19del or L858R substitution mutations; conditions: EURTAC; erlotinib 150 mg once daily; cited from earlier work
[2] = system: patients with NSCLC; conditions: in vivo; cited from earlier work
[3] = system: patients; conditions: pooled analysis; cited from earlier work
[4] = system: patients; conditions: human, in vivo; cited from earlier work
[5] = system: patients with EGFR T790M-mutant NSCLC who were third-generation EGFR TKI naïve
Procedure: Patients were screened for eligibility across six subgroups according to EGFR mutation status and prior therapy, and treated with nazartinib 75-350 mg (capsule or tablet formulation) orally, once daily (QD), on a continuous 28-day dosing schedule. The primary objective of the Phase I part was to determine the maximum tolerated dose and/or recommended Phase II dose (RP2D).
This was a Phase I/II, multicenter, open-label study of nazartinib in patients with locally advanced/metastatic EGFR-mutant NSCLC.
Nazartinib was administered orally, once daily (QD), on a continuous, 28-day cycle dosing schedule. The starting dose for the Phase I part was 75 mg in capsule formulation. Nazartinib in tablet formulation was also introduced during Phase I. Patients were treated across the following QD dose groups: 75 mg, 100 mg, 150 mg, 200 mg, 225 mg, 300 mg, and 350 mg. Initial cohorts consisted of 1-6 patients.
Patients treated with capsule or with tablet at the same dose level were pooled together into a single treatment group for safety and efficacy analyses. The Full Analysis Set (FAS) consists of all patients who received ≥1 dose of the study drug. Efficacy analyses were performed on all patients in the FAS who had baseline and post-baseline tumor assessment data or who had discontinued prior to post-baseline tumor assessment, and excluded patients with tumors that were wild-type at EGFR T790 or who had received prior third-generation EGFR TKIs, unless otherwise noted.
Duration of response (DoR) and PFS were described using the Kaplan-Meier method.

[6] = system: EGFR mutant (L858R, ex19del and T790M) cancer models; conditions: cited from earlier work
[7] = system: patients with advanced EGFR-mutant NSCLC harbouring activating EGFR L858R and/or ex19del mutations
[8] = Distribution of nazartinib to the brain in a preclinical model; assay type: in vivo
[9] = system: patients with EGFR T790M+ NSCLC; conditions: cited from earlier work; for hazard ratio for PFS: 95% CI
[10] = system: patients with EGFR mutant NSCLC; conditions: cited from earlier work
[11] = Brain metastases absent at baseline, 14 evaluable patients, preliminary data
[12] = Brain metastases present at baseline, 10 evaluable patients, preliminary data

## C#Cc1cccc(Nc2ncnc3cc(OCCOC)c(OCCOC)cc23)c1 [erlotinib]
[1]
  median PFS as assessed by the investigator: 9.7 months
[2]
  PFS obtained following treatment: 9.7 months
[3]
  ILD occurrence: 1.1%

## COc1cc2ncnc(Nc3ccc(F)c(Cl)c3)c2cc1OCCCN1CCOCC1 [gefitinib]
[4]
  patients who stopped therapy due to an adverse drug reaction: Approximately 3%
  patients with a severe adverse drug reaction (grade 3 or 4): Approximately 8%
[2]
  PFS obtained following treatment: 9.5 months

## Cc1cc(C(=O)Nc2nc3cccc(Cl)c3n2[C@@H]2CCCCN(C(=O)/C=C/CN(C)C)C2)ccn1 [nazartinib, (R,E)-N-(7-chloro-1-(1-(4-(dimethylamino)but-2-enoyl)azepan-3-yl)-1H-benzo [d]imidazol-2-yl)-2-methylisonicotinamide]
[5]; 75 mg QD, N = 12
  Among patients who progressed: Both A and B (A: progression in brain, B: outside of brain, at first PD): 1 patients
  Among patients who progressed: Only A, not B (A: progression in brain, B: outside of brain, at first PD): 1 patients
[5]; 100 mg QD, N = 34
  Among patients with baseline brain metastasis who progressed: Both A and B (A: progression in brain, B: outside of brain, at first PD): 2 patients
  Among patients with baseline brain metastasis who progressed: Only A, not B (A: progression in brain, B: outside of brain, at first PD): 1 patients
  Best response of brain non-target lesions: Absent/normalized: 1 patients
[5]; 150 mg QD dose level
  ORR: 46%
[5]; 150 mg QD, N = 68
  Best response of brain non-target lesions: Absent/normalized: 3 patients
[5]; 200 mg QD, N = 8
  Among patients who progressed: Only A, not B (A: progression in brain, B: outside of brain, at first PD): 1 patients
  Among patients who progressed: Only B, not A (A: progression in brain, B: outside of brain, at first PD): 6 patients
[5]; 225 mg QD
  HBV reactivation leading to hepatic failure and death: one
[5]; 225 mg QD, N = 24
  Among patients who progressed: Only B, not A (A: progression in brain, B: outside of brain, at first PD): 16 patients
  Among patients with baseline brain metastasis who progressed: Only A, not B (A: progression in brain, B: outside of brain, at first PD): 1 patients
  Among patients with baseline brain metastasis who progressed: Only B, not A (A: progression in brain, B: outside of brain, at first PD): 6 patients
  Best response of brain non-target lesions: Absent/normalized: 3 patients
[5]; 162 evaluable patients with EGFR T790M-positive tumors naïve to third-generation EGFR TKIs, 95% CI: 43-59
  best overall response rate across doses: 51%
[5]; All patients, N = 162
  Among patients with baseline brain metastasis who progressed: Only A, not B (A: progression in brain, B: outside of brain, at first PD): five
  Best response of brain non-target lesions: Absent/normalized: 16% and 14%
[5]; across doses, EGFR T790M-positive, third-generation EGFR TKI naïve
  median duration of response: 11.0 months
[5]; across doses, 95% CI: 7.3-11.1
  median progression-free survival (PFS): 9.1 months
[5]; human, in vivo
  most common adverse events: rash, diarrhea, and pruritus
[5]; patients with EGFR T790M-positive tumors naïve to third-generation EGFR TKIs
  overall disease control rate (DCR): 89% and 87%
[5]; person, EGFR ex19del/T790M NSCLC, numerous small brain metastases at baseline
  brain metastases at first post-baseline evaluation (single case): no longer radiologically detectable
[5]; person, EGFR ex19del/T790M NSCLC, numerous small brain metastases at baseline, no prior local therapy to the brain
  duration of overall partial response (single case): 11.1 months
[6]; several xenograft models
  anti-tumor efficacy: Dose-dependent anti-tumor efficacy
[6]; xenograft models, efficacious doses
  tolerability, body weight: well tolerated with no body weight loss
[7]; 150 mg once daily
  6-month duration of response rate (DoR): 91%
  6-month overall survival rate: 95%
  6-month progression-free survival rate: 83%
  disease control rate: 93%
[7]; 150 mg once daily, 45 patients
  patients who achieved complete response: One
[7]; 150 mg once daily, 45 patients, 95% CI 49%-78%
  ORR per RECIST v1.1 by BICR: 64%
[7]; 150 mg once daily, of 45 patients
  patients who demonstrated a response: Twenty-nine
[7]; [11]
  Best overall response per BIRC: Progressive disease (PD): 0 patients
  Disease control rate (CR + PR + SD + NCRNPD) per BIRC: 14 patients
  Overall response rate per BIRC: 11 patients
[7]; [12]
  Best overall response per BIRC: Complete response (CR): 0 patients
  Best overall response per BIRC: Non-CR/non-PD (NCRNPD): 0 patients
  Disease control rate (CR + PR + SD + NCRNPD) per BIRC: 9 patients
  Overall response rate per BIRC: 5 patients
[7]; of the 27 patients without baseline brain metastasis
  patients who developed a new brain metastasis on study: One
[7]; of the 29 responding patients, cutoff 22 Mar. 2018
  responses ongoing at data cutoff: 27 patients
[7]; person, Cycle 5 Day 1 (study day 113), no prior treatment for brain metastases
  brain post-baseline scan versus baseline by BIRC (single case): complete normalization of brain lesion
[8]
  distribution to the brain: minimal

## C=CC(=O)Nc1cc(Nc2nccc(-c3cn(C)c4ccccc34)n2)c(OC)cc1N(C)CCN(C)C [osimertinib]
[9]; AURA3
  median duration of response: 9.7 month
[9]; osimertinib arm of AURA3
  median PFS: 10.1 months
[9]; overall population, 0.23-0.41
  hazard ratio for PFS: 0.30
[9]; patients with CNS metastases, 0.21-0.49
  hazard ratio for PFS: 0.32
[10]; FLAURA first-line
  investigator reported median progression-free survival: 18.9 months
  median duration of response: 17.2 months
  objective response rate (ORR): 80%
[10]; any cause
  adverse event: diarrhea: 58%
  adverse event: dry skin: 36%
  adverse event: rash or acne: 58%
[10]; in vivo
  AEs of grade 3 or higher: 34%
[10]; interim analysis
  survival rate at 18 months: 83%
[10]; osimertinib vs standard EGFR-TKIs, 95% CI 0.37 to 0.57, P<0.001
  HR for disease progression or death: 0.46
[10]; osimertinib vs standard EGFR-TKIs, 95% CI, 0.45 to 0.88, P=0.007
  hazard ratio for death: 0.63
[10]; osimertinib vs standard EGFR-TKIs, 95% CI, 0.85 to 1.90, P=0.24
  odds ratio for ORR: 1.27
[2]
  PFS obtained following treatment: 10.2 months
